Data set [1] relates to serum prolactin levels. As to the kind of experiment: Serum prolactin levels in male rats after subcutaneous administration (radioimmunoassay). In kind it is in vivo, rat (male OFA). The following applies: s.c., only at high doses. The procedure: E. Fluckiger et al., Experientia 34, 1330-1331 (1978)]:
Male OFA-rats of about 250 g body weight are brought to the experimental room 24 hours before the actual experiment. They are kept in appropriate cages by tens. After the experimental treatment they are kept singly. Food and water are freely available. Various doses of the compound or the vehicle are administered s.c. to groups of 5 animals. In this standard experiment the animals are decapitated 4 hours after treatment. The sera of the individual animals are deep frozen until assayed. Prolactin is then measured in aliquots by radioimmunoassay. The serum prolactin levels are expressed in ng/ml in terms of the prolactin standard NIAMD-RPrl-RP1.

A short description of a further data set: Tolerability in mice. The following applies: mouse, in vivo, po, well tolerated up to, read-out: well tolerated dose. The procedure: (§1) The compound of formula I is well tolerated in mice up to 100 mg/kg p.o. The non-toxic dose level in the dog after a 4 week treatment is 3 mg/kg/day p.o.
A further data set has as its target T1, D-2 receptor sites (Bos taurus, UniProt P20288).
T1 construct: Calf striatal membranes are prepared as described above; from tissue; host or cells: calf brain striatum, membrane homogenate
Kind of data set: D-2 receptor binding, 3H-spiperone binding assay in calf striatal membranes. The procedure: (§2) Furthermore the compound of formula I binds to dopamine receptors as characterised by the displacement of ^3 H-ligands from their respective binding sites in the homogenates of brain tissue.
(§3) Fresh calf brain striatal tissue is homogenized in a 20 fold volume of Tris-HCl buffer (50 mM, pH 7.4 at 25° C.) using a Polytron tissue homogenizer. The homogenate is centrifuged for 10 minutes at 50,000 g (4° C.) and the supernatant discarded. The pellets are resuspended in the same buffer as before. The suspension is incubated for 20 minutes at 37° C. and then recentrifuged as before. The resulting pellets are stored frozen at -20° until their use in the binding assay. For the binding assay the pellets are resuspended in Tris-HCl buffer (50 mM, pH 7.4 at 37° C., containing 120 mM NaCl) in such a way that the final volume of 2 ml contains membranes corresponding to approximately 5 mg original tissue weight. ^3 H-SCH 23390 is added to give a final concentration of 0.1 nM. The assays for the determination of nonspecific binding additionally contain 1 μM unlabelled SCH 23390. The test compound is added to give 5 to 9 different concentrations. […] The filters are monitored for radioactivity through liquid scintillation counting. […]
The high affinity of the compound for D-2 receptor sites may be determined in the ^3 H-spiperone binding assay [cf. […]

Data set [2] concerns rats with an unilateral 6-OHDA (6-hydroxydopamine) induced lesion of the substantia nigra. As to the kind of experiment: Rotational behaviour in rats with unilateral 6-OHDA induced lesion of the substantia nigra (Ungerstedt rat). In kind it is in vivo. The source says:
For instance, the compound of formula I induces in rats with an unilateral 6-OHDA (6-hydroxydopamine) induced lesion of the substantia nigra [i.e. Ungerstedt rat, c.f.

For the next data set, the target named is T2, D-1 receptor sites (Bos taurus, UniProt Q95136).
T2 construct: Fresh calf brain striatal tissue is homogenized; from tissue; host or cells: calf brain striatum, membrane homogenate
As to the kind of experiment: D-1 receptor binding, displacement of 3H-SCH 23390 in calf striatal membranes. As to the method: as §2
The affinity to D-1 receptor sites [cf. W. Billard et al., Life Sci. 35, 1885-1893 (1984)] using ^3 H-(R)-(+)-8-chloro-7-hydroxy-3-methyl-5-phenyl-2,3,4,5-tetrahydro-1H-3-benzazepine (^3 H-SCH 23390) as ligand is determined as follows:
as §3, with “23390.” for “23390. The test compound is added to give 5 to 9 different concentrations.”

The subject of data set [3] is serum prolactin levels. More on the design: species or system rat (male Sprague-Dawley). The note with it: rat, in vivo. The procedure: The test is performed as follows:
Male rats (120-140 g, Sprague-Dawley, Suddeutsche Tierfarm, Tuttlingen, West Germany) are maintained on a 12:12 light dark cycle (lights on 06.00, off 18.00 hrs). On the evening before the experiment, animals are marked for identification purposes and caged in groups of 4 into makrolon (type 3) cages. The next morning, the rats in each group receive 10 mg/kg p.o. of the test drug or placebo (normal saline solution+2 drops HCl) 2, 4, 8, 16 or 24 hours before they are killed by decapitation. Blood samples are collected in plastic tubes, centrifuged to obtain the serum, which is then stored at -20° C. until assayed for prolactin. Prolactin in the serum is measured by radioimmunoassay according to that of A. Hausler et al., J. Ultrastruct. Res. 64, 74 (1978).

The subject of data set [4] is apomorphine induced gnawing. As to the kind of experiment: Inhibition of apomorphine induced gnawing in the rat. The note with it: po, apomorphine hydrochloride 2.0 mg/kg i.v., read-out: threshold dose (100% inhibition of apomorphine induced gnawing). In kind it is in vivo, rat (Sprague-Dawley). As to the method:
The compound of formula I inhibits apomorphine induced gnawing in the rat in a method based on that of P.A. Janssen et al., Arzneim.-Forsch. (Drug Res.) 10, 1003-1005 (1960):
Groups of 3-6 rats (males and females, 90-160 g, Sprague-Dawley, Suddeutsche Tierfarm, Tuttlingen, West Germany) are treated with the test-drug orally and after a pre-determined time further treated with 2.0 mg/kg i.v. apomorphine hydrochloride in aq. solution. They are then placed in individual cages lined with corrugated paper. At times 10, 20 and 30 minutes after the apomorphine each rat is observed for 1 minute. If gnawing occurred during an observation period, that observation is scored as positive. Thus, three scores are obtained from each rat. The supra-maximal dose of apomorphine invariably produces gnawing in all controls at all observation times. Out of the total number of observations per treatment group, the number of positives is noted. The dose of drug which causes a 100% inhibition of the apomorphine induced gnawing is taken as the threshold dose. After a pretreatment time of 3 hours the threshold dose for the compound of formula I is 0.2 mg/kg p.o., after a pretreatment time of 6 hours also 0.2 mg/kg p.o.

Data set [5] can be described thus: Non-toxic dose level in the dog after 4 week treatment. The note with it: in vivo, po, after a 4 week treatment. As to the method:
as §1

The next data set concerns catalepsy. Kind of data set: Cataleptogenic activity in rats. In kind it is in vivo, rat (Sprague-Dawley). The note with it: p.o. As to the method: (§4) (Drug Res.) 21, 252-255 (1971). In this test groups of 4-8 rats (120-170 g, Sprague-Dawley, females and males, Suddeutsche Tierfarm, Tuttlingen, West Germany) receive the test substance orally. At specified times after treatment the catalepsy of each rat is estimated by placing the forepaws on a 7 cm high block. The time for which the animal remains in this unnatural position is measured up to a maximum of 45 seconds. The threshold dose is the final dose, which still causes a catalepsy-median of >10 seconds. The compound of formula I has a threshold dose of 5 mg/kg p.o. determined during an 8 hour measurement period. This is a dose which is at least 25 times higher than that required to antagonize apomorphine induced gnawing.

The nature of data set [6]: Cataleptogenic activity in rats. In kind it is in vivo, rat (Sprague-Dawley). The following applies: rat, in vivo, po, read-out: ratio of catalepsy threshold dose to dose required to antagonize apomorphine induced gnawing. As to the method: as §4

Read-outs that look alike come from different tables or passages of the source.

The values below come from patent US5075318A, “8α-acylaminoergoline, its preparation and pharmaceutical compositions containing it” (Sandoz Ltd., priority 1987, dated 1991).

T1 sequence (P20288 whole entry): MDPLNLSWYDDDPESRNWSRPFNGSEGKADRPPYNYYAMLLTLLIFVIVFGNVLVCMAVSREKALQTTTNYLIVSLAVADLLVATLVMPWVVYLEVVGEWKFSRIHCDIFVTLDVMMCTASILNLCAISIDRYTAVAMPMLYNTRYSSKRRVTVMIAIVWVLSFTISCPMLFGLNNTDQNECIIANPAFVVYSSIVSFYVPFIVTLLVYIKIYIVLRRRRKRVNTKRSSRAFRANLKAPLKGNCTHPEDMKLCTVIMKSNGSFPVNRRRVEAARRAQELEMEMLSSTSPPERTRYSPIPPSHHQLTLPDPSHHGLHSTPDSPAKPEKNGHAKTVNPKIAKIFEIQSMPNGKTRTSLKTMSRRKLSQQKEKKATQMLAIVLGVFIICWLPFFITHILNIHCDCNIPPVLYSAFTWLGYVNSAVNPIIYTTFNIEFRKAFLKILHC
T2 sequence (Q95136 whole entry): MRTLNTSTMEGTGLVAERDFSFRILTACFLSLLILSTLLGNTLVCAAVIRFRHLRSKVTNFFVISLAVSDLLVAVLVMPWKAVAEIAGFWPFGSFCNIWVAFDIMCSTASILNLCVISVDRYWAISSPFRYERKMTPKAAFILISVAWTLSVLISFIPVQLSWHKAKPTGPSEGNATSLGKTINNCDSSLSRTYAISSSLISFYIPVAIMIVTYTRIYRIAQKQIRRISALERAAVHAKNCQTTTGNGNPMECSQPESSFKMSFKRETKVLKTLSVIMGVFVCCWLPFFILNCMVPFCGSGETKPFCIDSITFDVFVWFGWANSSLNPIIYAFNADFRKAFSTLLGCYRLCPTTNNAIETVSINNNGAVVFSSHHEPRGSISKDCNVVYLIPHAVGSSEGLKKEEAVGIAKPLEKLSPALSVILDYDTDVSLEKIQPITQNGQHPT

`CCC(C)(CC)C(=O)N[C@H]1C[C@@H]2c3cccc4[nH]c(C)c(c34)C[C@H]2N(C)C1` [compound of formula I, N-[(5R,8S,10R)-2,6-dimethyl-ergoline-8-yl]-2-ethyl-2-methyl-butanamide]: the “dose that influences serum prolactin levels” value with serum prolactin levels [1] is no less than 10 mg/kg. In the data set “Tolerability in mice”, the MTD is no less than 100 mg/kg. For the same compound, the IC50 (in general, the point on the concentration scale where inhibition reaches its midpoint) on D-2 receptor sites is roughly 20 nM; at D-1 receptor sites, roughly 50 nM. The “rotations contralateral to the lesion” value in data set [2] (0.5 mg/kg p.o., within 7 hours) is 950 rotations. Besides, the “rotational behaviour (in words)” value in data set [2] (rats, relatively low doses, p.o.) is listed as “long lasting rotational behaviour contralateral to the lesion”. Moreover, in the data set with serum prolactin levels [3], the “effect on prolactin levels, oral administration (overall)” value is reported as “only weak effects on prolactin levels”. In addition, the “effect on serum prolactin levels” value with serum prolactin levels [3] (po, 10 mg/kg) was “declines (24 hours) towards normal”. Further, the ED100 in [4] (pretreatment time 3 hours) and in data set [4] (pretreatment time 6 hours) was 0.2 mg/kg each time. Also, the no observed adverse effect level (NOAEL) (usually the highest dose or exposure tested at which no adverse effect was seen) at 672 h in data set [5] amounted to 3 mg/kg/day. Besides, in the data set with catalepsy, the “cataleptogenic activity (in words)” value is “only a weak cataleptogenic activity”. In addition, the “threshold dose (catalepsy-median of >10 seconds)” value in the data set on catalepsy (8 hour measurement period) was determined as 5 mg/kg p.o. For the same compound, in data set [6], the selectivity ratio was no less than 25.
In the case of `O=C(CCCN1CCC(O)(c2ccc(Cl)cc2)CC1)c1ccc(F)cc1` [haloperidol, reference compound], the ED100 in data set [4] (pretreatment time 6 hours) was 0.2 mg/kg.
